Measurements from US12253513B2, “Methods and compositions for the selective lysis of blood cells and separation of microbial cells” (QVELLA CORPORATION, priority 2018, dated 2025).

Key:
[1] = test system: Pseudomonas aeruginosa (PA), Proteus mirabilis (PM), and Staphylococcus aureus (SA); test: Microbial cell intactness: ΔCT by real-time RT-PCR, spiked whole blood samples; assay type: cell-based; conditions: 0.94% w/v detergent in type 3 reagent/blood mixture; all three species
[2] = test system: Pseudomonas aeruginosa (PA), Proteus mirabilis (PM), and Staphylococcus aureus (SA); test: Microbial cell intactness: ΔCT by real-time RT-PCR, spiked phosphate buffer samples; assay type: cell-based; conditions: Triton X-100 0-0.75% w/v with SPS 15 mg/mL, no high pH; all cell types
Description: The effect of Triton X-100, one of the components of the type 2 blood lysis reagent, on microbial cell intactness, was experimentally investigated in the absence of a high pH environment (e.g. in the absence of a carbonate-bicarbonate buffer). Experiments were performed by contacting spiked phosphate buffer samples containing Pseudomonas aeruginosa (PA), Proteus mirabilis (PM), and Staphylococcus aureus (SA), prepared according to Example 3 below, with solutions containing Triton X-100 and SPS, such that the final concentrations of Triton X-100 in the various samples were 0, 0.188, 0.375, 0.55 and 0.75% w/v, and the SPS concentration was 15 mg/mL. Sample preparation and real time RT-PCR was performed according to the methods provided in Example 5 below. Spiked phosphate buffer samples, prepared according to the method of Example 3 below, were also prepared for spiked control and subjected to real time RT-PCR according to the method of Example 4 below. The ΔCT value, determined based on the difference between the spiked phosphate buffer sample CT value and the spiked control CT value, was employed as a proxy for microbial cell intactness after exposure to Triton X-100.
Bacterial cell suspension stock of 50 μL, having about 10^3 CFU of respective bacterial cells was added to 5 mL of 1 mM Phosphate Buffer (PB) and mixed by gentle vortexing. […]

| Compound | ΔCT, Tween 20 compared with Triton X-100 as non-ionic detergent [1] | ΔCT [2] |
| --- | --- | --- |
| CCCCCCCCCCCC(=O)OCCOCCOCCOCCOCCOCCOCCOCCOCCOCCOCCOCCOCCOCCOCCOCCOCCOCCOCCOCCOCC(OCCOCCOCCOCCOCCOCCOCCOCCOCCOCCOCCOCCOCCOCCOCCOCCOCCOCCOCCOCCO)C1OCC(OCCOCCOCCOCCOCCOCCOCCOCCOCCOCCOCCOCCOCCOCCOCCOCCOCCOCCOCCOCCO)C1OCCOCCOCCOCCOCCOCCOCCOCCOCCOCCOCCOCCOCCOCCOCCOCCOCCOCCOCCOCCO (centres unmarked) [Tween 20, Polysorbate 20] | very similar | – |
| polyethylene glycol p-(1,1,3,3-tetramethylbutyl)-phenyl ether [Triton X-100] | – | ≤ 2 |
